Source: patent US8053553B2, “Targeting host proteinases as a therapeutic strategy against viral and bacterial pathogens” (Socpra Sciences Sante Et Humaines, priority 2007, dated 2011)
Like-named read-outs stand apart in the source and are kept apart here. Non-standard residues stand in square brackets, D forms with d. Residues, ends and D or L forms follow the SMILES beside them. Ahx = NCCCCCC(=O)O; Sar = CNCC(=O)O

Experiments:
PACE4 = experiment: Ki, μM | PACE4
PC4 = experiment: Ki, μM | PC4
PC5/6 = experiment: Ki, μM | PC5/6
PC7 = experiment: Ki, μM | PC7
furin = target: T1, furin (Homo sapiens, UniProt P09958); experiment: biochemical; conditions: furin, Pyr-RTKR-AMC substrate, read-out: Ki
T1 construct: made in house; host or cells: Drosophila S2 cells (Invitrogen expression system)
T1 sequence (P09958 108-794 limits assumed): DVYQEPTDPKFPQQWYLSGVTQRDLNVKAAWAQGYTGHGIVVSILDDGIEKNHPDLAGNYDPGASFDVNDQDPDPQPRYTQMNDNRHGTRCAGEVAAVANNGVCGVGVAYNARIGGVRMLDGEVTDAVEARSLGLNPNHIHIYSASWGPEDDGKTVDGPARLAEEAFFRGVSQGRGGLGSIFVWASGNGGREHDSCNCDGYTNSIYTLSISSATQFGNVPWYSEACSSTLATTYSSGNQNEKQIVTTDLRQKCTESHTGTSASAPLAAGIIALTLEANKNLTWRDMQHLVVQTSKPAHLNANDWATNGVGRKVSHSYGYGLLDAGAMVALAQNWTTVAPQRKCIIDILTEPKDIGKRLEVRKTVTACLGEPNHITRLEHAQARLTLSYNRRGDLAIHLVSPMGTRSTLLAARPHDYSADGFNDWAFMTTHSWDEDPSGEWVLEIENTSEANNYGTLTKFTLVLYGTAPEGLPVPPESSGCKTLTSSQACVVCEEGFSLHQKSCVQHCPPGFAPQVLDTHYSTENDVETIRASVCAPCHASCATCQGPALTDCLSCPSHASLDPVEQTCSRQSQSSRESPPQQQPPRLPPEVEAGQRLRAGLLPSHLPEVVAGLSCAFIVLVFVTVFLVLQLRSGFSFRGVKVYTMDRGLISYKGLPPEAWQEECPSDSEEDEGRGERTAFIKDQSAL

[1] = alanine scanning mutagenesis of the H5 furin cleavage sequence (Table 2)
[2] = optimization of the inhibitory peptides (Table 3)

TPQRARRRKKRY
Ki (PACE4): 1.02 µM
Ki (PC4): 0.624 µM
Ki (PC5/6): 0.649 µM
Ki (PC7): 1.22 µM

TPQRARRRKKRT
Ki (PC4): 0.515 µM
Ki (PC5/6): 0.188 µM
Ki (PC7): 0.206 µM

C[C@H](NC(=O)[C@H](CCCNC(=N)N)NC(=O)[C@@H]1CCCN1C(=O)[C@@H](N)[C@@H](C)O)C(=O)N[C@@H](CCCNC(=N)N)C(=O)N[C@@H](CCCNC(=N)N)C(=O)N[C@@H](CCCNC(=N)N)C(=O)N[C@@H](CCCCN)C(=O)N[C@@H](CCCCN)C(=O)N[C@@H](CCCNC(=N)N)C(=O)N[C@H](C(N)=O)[C@@H](C)O (H-TPRARRRKKRT-NH2)
Ki (PACE4): 0.162 µM
Ki (PC4): 0.441 µM
Ki (PC5/6): 0.232 µM
Ki (PC7): 0.152 µM

TPQRARRRKKRF
Ki (PACE4): 0.602 µM
Ki (PC4): 0.772 µM
Ki (PC5/6): 0.806 µM
Ki (PC7): 1.13 µM

CC(C)[C@H](NC(=O)[C@H](CCCNC(=N)N)NC(=O)[C@H](CCCCN)NC(=O)[C@H](CCCCN)NC(=O)[C@H](CCCNC(=N)N)NC(=O)[C@H](CCCNC(=N)N)NC(=O)[C@H](CCCNC(=N)N)NC(=O)[C@H](CCC(=O)O)NC(=O)[C@H](C)NC(=O)[C@@H]1CCCN1C(=O)[C@@H](N)[C@@H](C)O)C(N)=O (H-TPAERRRKKRV-NH2)
Ki (furin; [1]): > 100 nM

C[C@H](NC(=O)[C@H](CCCCN)NC(=O)[C@H](CCCCN)NC(=O)[C@H](CCCNC(=N)N)NC(=O)[C@H](CCCNC(=N)N)NC(=O)[C@H](CCCNC(=N)N)NC(=O)[C@H](CCC(=O)O)NC(=O)[C@H](CCCNC(=N)N)NC(=O)[C@@H]1CCCN1C(=O)[C@@H](N)[C@@H](C)O)C(=O)N(C)CC(N)=O (H-TPRERRRKKA[Sar]-NH2)
Ki (furin; [1]): > 100 nM

C[C@H](NC(=O)[C@H](CCCNC(=N)N)NC(=O)[C@H](CCCNC(=N)N)NC(=O)[C@H](CCC(=O)O)NC(=O)[C@H](CCCNC(=N)N)NC(=O)[C@@H]1CCCN1C(=O)[C@@H](N)[C@@H](C)O)C(=O)N[C@@H](CCCCN)C(=O)N[C@@H](CCCCN)C(=O)N[C@@H](CCCNC(=N)N)C(N)=O (H-TPRERRAKKR-NH2)
Ki (furin; [1]): > 100 nM

C[C@H](NC(=O)[C@H](C)NC(=O)[C@H](CCCNC(=N)N)NC(=O)[C@H](CCCNC(=N)N)NC(=O)[C@H](CCC(=O)O)NC(=O)[C@H](CCCNC(=N)N)NC(=O)[C@@H]1CCCN1C(=O)[C@@H](N)[C@@H](C)O)C(=O)N[C@@H](CCCCN)C(=O)N[C@@H](CCCNC(=N)N)C(=O)N(C)CC(N)=O (H-TPRERRAAKR[Sar]-NH2)
Ki (furin; [1]): > 100 nM

C[C@@H](O)[C@H](N)C(=O)N1CCC[C@H]1C(=O)N[C@@H](CCC(N)=O)C(=O)N[C@@H](CCCNC(=N)N)C(=O)N[C@H](C(=O)N[C@@H](CCCNC(=N)N)C(=O)N[C@@H](CCCNC(=N)N)C(=O)N[C@@H](CCCNC(=N)N)C(=O)N[C@@H](CCCCN)C(=O)N[C@@H](CCCCN)C(=O)N[C@@H](CCCNC(=N)N)C(=O)NCC(N)=O)[C@@H](C)O (H-TPQRTRRRKKRG-NH2)
Ki (furin; [2]): > 100 nM

C[C@H](NC(=O)[C@H](C)NC(=O)[C@@H](N)[C@@H](C)O)C(=O)N[C@@H](CCC(=O)O)C(=O)N[C@@H](CCCNC(=N)N)C(=O)N[C@@H](CCCNC(=N)N)C(=O)N[C@@H](CCCNC(=N)N)C(=O)N[C@@H](CCCCN)C(=O)N[C@@H](CCCCN)C(=O)N[C@@H](CCCNC(=N)N)C(=O)NCC(N)=O (H-TAAERRRKKRG-NH2)
Ki (furin; [1]): > 100 nM

CC(C)[C@H](NC(=O)[C@H](CCCNC(=N)N)NC(=O)[C@H](CCCCN)NC(=O)[C@H](CCCCN)NC(=O)[C@H](CCCNC(=N)N)NC(=O)[C@H](C)NC(=O)[C@H](CCCNC(=N)N)NC(=O)[C@H](CCC(=O)O)NC(=O)[C@H](CCCNC(=N)N)NC(=O)[C@@H]1CCCN1C(=O)[C@@H](N)[C@@H](C)O)C(N)=O (H-TPRERARKKRV-NH2)
Ki (furin; [1]): > 100 nM

C[C@H](NC(=O)[C@H](CCCNC(=N)N)NC(=O)[C@H](CCCNC(=N)N)NC(=O)[C@H](CCCNC(=N)N)NC(=O)[C@H](CCC(=O)O)NC(=O)[C@H](CCCNC(=N)N)NC(=O)[C@@H]1CCCN1C(=O)[C@@H](N)[C@@H](C)O)C(=O)N[C@@H](CCCCN)C(=O)N[C@@H](CCCNC(=N)N)C(=O)N(C)CC(N)=O (H-TPRERRRAKR[Sar]-NH2)
Ki (furin; [1]): > 100 nM

CSCC[C@H](NC(=O)[C@H](CCCNC(=N)N)NC(=O)[C@H](CCC(N)=O)NC(=O)[C@@H]1CCCN1C(=O)[C@@H](N)[C@@H](C)O)C(=O)N[C@@H](CCCNC(=N)N)C(=O)N[C@@H](CCCNC(=N)N)C(=O)N[C@@H](CCCNC(=N)N)C(=O)N[C@@H](CCCCN)C(=O)N[C@@H](CCCCN)C(=O)N[C@@H](CCCNC(=N)N)C(=O)NCC(N)=O
Ki (furin; [2]): > 100 nM

C[C@H](NC(=O)[C@H](CCCNC(=N)N)NC(=O)[C@H](CCC(N)=O)NC(=O)[C@@H]1CCCN1C(=O)[C@@H](N)[C@@H](C)O)C(=O)N[C@@H](CCCNC(=N)N)C(=O)N[C@@H](CCCNC(=N)N)C(=O)N[C@@H](CCCNC(=N)N)C(=O)N[C@@H](CCCCN)C(=O)N[C@@H](CCCCN)C(=O)N[C@@H](CCCNC(=N)N)C(=O)N[C@H](CCCNC(=N)N)C(N)=O (H-TPQRARRRKKR[dR]-NH2)
Ki (furin; [2]): > 100 nM

C[C@H](NC(=O)[C@H](CCCNC(=N)N)NC(=O)[C@H](CCC(N)=O)NC(=O)[C@@H]1CCCN1C(=O)[C@@H](N)[C@@H](C)O)C(=O)N[C@@H](CCCNC(=N)N)C(=O)N[C@@H](CCCNC(=N)N)C(=O)N[C@@H](CCCNC(=N)N)C(=O)N[C@@H](CCCCN)C(=O)N[C@@H](CCCCN)C(=O)N[C@@H](CCCNC(=N)N)C(=O)N[C@@H](CC(=O)O)C(N)=O (H-TPQRARRRKKRD-NH2)
Ki (furin; [2]): 50 nM

C[C@H](NC(=O)[C@H](C)NC(=O)[C@H](CCCNC(=N)N)NC(=O)[C@H](CCC(=O)O)NC(=O)[C@H](CCCNC(=N)N)NC(=O)[C@@H]1CCCN1C(=O)[C@@H](N)[C@@H](C)O)C(=O)N[C@@H](CCCCN)C(=O)N[C@@H](CCCCN)C(=O)N[C@@H](CCCNC(=N)N)C(=O)N(C)CC(N)=O (H-TPRERAAKKR[Sar]-NH2)
Ki (furin; [1]): > 100 nM

C[C@H](NC(=O)[C@H](C)NC(=O)[C@@H](N)[C@@H](C)O)C(=O)N[C@@H](CCC(=O)O)C(=O)N[C@@H](CCCNC(=N)N)C(=O)N[C@@H](CCCNC(=N)N)C(=O)N[C@@H](CCCNC(=N)N)C(=O)N[C@@H](CCCCN)C(=O)N[C@@H](CCCCN)C(=O)N[C@@H](CCCNC(=N)N)C(=O)N(C)CC(N)=O (H-TAAERRRKKR[Sar]-NH2)
Ki (furin; [1]): > 100 nM

C[C@@H](O)[C@H](N)C(=O)N1CCC[C@H]1C(=O)N[C@@H](CCCN=C(N)N)C(=O)NCC(=O)N[C@@H](CCCN=C(N)N)C(=O)N[C@@H](CCCN=C(N)N)C(=O)N[C@@H](CCCN=C(N)N)C(=O)N[C@@H](CCCCN)C(=O)N[C@@H](CCCCN)C(=O)N[C@@H](CCCN=C(N)N)C(=O)NCC(N)=O (H-TPRGRRRKKRG-NH2)
Ki (furin; [2]): 47 nM

C[C@H](N)C(=O)N[C@@H](C)C(=O)N[C@@H](C)C(=O)N[C@@H](CCC(=O)O)C(=O)N[C@@H](CCCNC(=N)N)C(=O)N[C@@H](CCCNC(=N)N)C(=O)N[C@@H](CCCNC(=N)N)C(=O)N[C@@H](CCCCN)C(=O)N[C@@H](CCCCN)C(=O)N[C@@H](CCCNC(=N)N)C(=O)NCC(N)=O (H-AAAERRRKKRG-NH2)
Ki (furin; [1]): > 100 nM

C[C@H](NC(=O)[C@H](CCCNC(=N)N)NC(=O)[C@H](CCC(N)=O)NC(=O)[C@@H]1CCCN1C(=O)[C@@H](N)[C@@H](C)O)C(=O)N[C@@H](CCCNC(=N)N)C(=O)N[C@@H](CCCNC(=N)N)C(=O)N[C@@H](CCCNC(=N)N)C(=O)N[C@@H](CCCCN)C(=O)N[C@@H](CCCCN)C(=O)N[C@@H](CCCNC(=N)N)C(=O)NCCCCCC(N)=O (H-TPQRARRRKKR[Ahx]-NH2)
Ki (furin; [2]): > 100 nM

C[C@H](NC(=O)[C@H](C)NC(=O)[C@H](CCCNC(=N)N)NC(=O)[C@H](CCCNC(=N)N)NC(=O)[C@H](CCCNC(=N)N)NC(=O)[C@H](CCC(=O)O)NC(=O)[C@H](CCCNC(=N)N)NC(=O)[C@@H]1CCCN1C(=O)[C@@H](N)[C@@H](C)O)C(=O)N[C@@H](CCCNC(=N)N)C(N)=O
Ki (furin; [1]): > 100 nM

CC(C)[C@H](NC(=O)[C@H](CCCNC(=N)N)NC(=O)[C@H](CCCCN)NC(=O)[C@H](CCCCN)NC(=O)[C@H](CCCNC(=N)N)NC(=O)[C@H](CCCNC(=N)N)NC(=O)[C@H](CCCNC(=N)N)NC(=O)[C@H](CCC(=O)O)NC(=O)[C@H](CCCNC(=N)N)NC(=O)[C@@H]1CCCN1C(=O)[C@@H](N)[C@@H](C)O)C(N)=O (H-TPRERRRKKRV-NH2)
Ki (furin; [1]): > 100 nM

C[C@H](NC(=O)[C@H](C)NC(=O)[C@H](CCCNC(=N)N)NC(=O)[C@H](CCC(=O)O)NC(=O)[C@H](CCCNC(=N)N)NC(=O)[C@@H]1CCCN1C(=O)[C@@H](N)[C@@H](C)O)C(=O)N[C@@H](CCCCN)C(=O)N[C@@H](CCCCN)C(=O)N[C@@H](CCCNC(=N)N)C(=O)NCC(N)=O (H-TPRERAAKKRG-NH2)
Ki (furin; [1]): > 100 nM

C[C@H](NC(=O)[C@H](CCCNC(=N)N)NC(=O)[C@@H]1CCCN1)C(=O)N[C@@H](CCCNC(=N)N)C(=O)N[C@@H](CCCNC(=N)N)C(=O)N[C@@H](CCCNC(=N)N)C(=O)N[C@@H](CCCCN)C(=O)N[C@@H](CCCCN)C(=O)N[C@@H](CCCNC(=N)N)C(=O)N[C@H](C(N)=O)[C@@H](C)O
Ki (furin; N-terminal deletions (Example 2, Table 6)): 16.6 nM

C[C@@H](O)[C@H](N)C(=O)N1CCC[C@H]1C(=O)N[C@@H](CCC(N)=O)C(=O)N[C@@H](CCCNC(=N)N)C(=O)NCCC(=O)N[C@@H](CCCNC(=N)N)C(=O)N[C@@H](CCCNC(=N)N)C(=O)N[C@@H](CCCNC(=N)N)C(=O)N[C@@H](CCCCN)C(=O)N[C@@H](CCCCN)C(=O)N[C@@H](CCCNC(=N)N)C(=O)NCC(N)=O [TPQR1RRRKKRG]
Ki (furin; [2]): > 100 nM

C[C@H](NC(=O)[C@H](CCCNC(=N)N)NC(=O)[C@H](CCCNC(=N)N)NC(=O)[C@H](CCCNC(=N)N)NC(=O)[C@H](CCC(=O)O)NC(=O)[C@H](CCCNC(=N)N)NC(=O)[C@@H]1CCCN1C(=O)[C@@H](N)[C@@H](C)O)C(=O)N[C@@H](CCCCN)C(=O)N[C@@H](CCCNC(=N)N)C(N)=O (H-TPRERRRAKR-NH2)
Ki (furin; [1]): > 100 nM

C[C@H](NC(=O)[C@H](C)NC(=O)[C@H](CCC(=O)O)NC(=O)[C@H](CCCNC(=N)N)NC(=O)[C@@H]1CCCN1C(=O)[C@@H](N)[C@@H](C)O)C(=O)N[C@@H](C)C(=O)N[C@@H](CCCCN)C(=O)N[C@@H](CCCCN)C(=O)N[C@@H](CCCNC(=N)N)C(=O)N(C)CC(N)=O (H-TPREAAAKKR[Sar]-NH2)
Ki (furin; [1]): > 100 nM
